Experiments:
cultured nerve cells = conditions: cited from earlier work
[1] = system: co-cultures of nerve cells (neurons) and oligodendrocytes; assay: Co-culture of nerve cells and oligodendrocytes, Western blotting of MAP2 and CNPase; format: cell-based, rat
Source text: As generally known, in myelinated nerve fibers within brain and nervous tissues, oligodendrocytes form myelin by ensheathing axons of neurons repeatedly. Further, in unmyelinated nerve fibers, processes of oligodendrocytes surround axons of neurons only once. In the brain and nervous tissues, nerve cells (neurons) and oligodendrocytes are at any time holding close positional relationship. The present inventors performed co-cultures of nerve cells and oligodendrocytes to investigate whether or not ginsenoside Rb1 promotes survival of both cells. For that purpose, nerve cells (neurons) were isolated from cerebral cortices of fetal rats at gestational day 17. The mixed brain cell culture was initiated to isolate oligodendrocytes by using the forebrain of newborn rats. Fifty thousands of oligodendrocytes and 500,000 nerve cells were cocultured. To this culture system was added 1 fg/ml to 10 pg/ml ginsenoside Rb1 in DMEM containing 1% fetal calf serum, and the mixed cells were cultured for 5 days. Subsequently, samples for electrophoresis were prepared and contents of the neuron-specific protein MAP2 (microtubule-associated protein 2) and the oligodendrocyte-specific protein CNPase (cyclic nucleotide […]) in the culture well were assayed by means of Western blotting. […]

[2] = Observation of animals for ill or adverse effects; format: in vivo; conditions: present experiments
[3] = system: primary cultured myocardial cells; assay: Myocardial cell survival in glucose-free, serum-free medium (α-actinin immunoblotting); format: cell-based, rat
Method: We have investigated whether or not ginsenoside Rb1 could actually suppress myocardial cell death in the concentration range for increasing the expression of Bcl-xL protein. For that purpose, for example, the protective effect of ginsenoside Rb1 on myocardial cells was examined when the primary cultured myocardial cells were cultured without addition of glucose. Ginsenoside Rb1 in the concentration range from 0 to 1 ng/ml was added to myocardial cells in serum-free DMEM without containing glucose, and the myocardial cells were cultured for 4 or 5 days. Subsequently, the samples for electrophoresis were prepared, and immunoblotting (Western blotting) was performed by using anti-striated muscle specific α-actinin antibody.
We (the present inventors) investigated whether ginsenoside Rb1 could actually suppress myocardial cell death in the concentration range for increasing the expression of Bcl-xL protein or not. For that purpose, for example, the protective effect of ginsenoside Rb1 on myocardial cells was examined when the primary cultured myocardial cells were cultured without addition of glucose. Ginsenoside Rb1 in the concentration range from 0 to 1 ng/ml was added to serum-free DMEM without containing glucose, and myocardial cells were cultured for 4 or 5 days. Subsequently, the sample for electrophoresis was prepared, and immunoblotting (Western blotting) was performed by using anti-striated muscle specific α-actinin antibody. […] Statistical analyses were conducted by ANOVA+Scheffe's post hoc test.

[4] = intracerebroventricular administration; cited from earlier work
Bcl-xL = Bcl-xL expression in primary cultured myocardial cells (RT-PCR, immunoblotting); format: cell-based, rat
Method: Next, we have studied effect of ginsenoside Rb1 on the heart. For that purpose, for example, changes in the expression of Bcl-xL mRNA and Bcl-xL protein were examined with RT-PCR and immunoblotting, when primary cultured myocardial cells were cultured for 18 hours in the presence of ginsenoside Rb1. Myocardial cells were prepared as follows. The hearts of fetal rats at gestational day 17 were treated with trypsin EDTA to prepare dispersed cells, which were cultured for several days in DMEM containing 10% FCS (fetal calf serum). In RT-PCR, β-actin mRNA was used as the internal standard. In the immunoblotting, troponin T, a striated muscle-specific protein, was used as the internal standard, and expression of Bcl-xL protein was examined. In the immunoblotting, the same experiments were repeated 10 times by using different lots of myocardial cells, and Bcl-xL immunoreaction-positive bands were analyzed by densitometry and statistical analysis was performed.
Subsequently we studied the effectiveness of ginsenoside Rb1 on heart. For that purpose, for example, changes in the expressions of Bcl-xL mRNA and Bcl-xL protein were examined with the use of RT-PCR and immunoblotting, when the primary cultured myocardial cells were cultured for 18 hours in the presence of ginsenoside Rb1. Myocardial cells were prepared as follows. The hearts of fetal rats at gestational day 17 were treated with trypsin EDTA to prepare the dispersed cells, which were cultured for several days in DMEM containing 10% FCS (fetal calf serum). In RT-PCR, β-actin mRNA was used as the internal standard. In the immunoblotting, troponin T, a striated muscle-specific protein, was used as the internal standard, and expression of Bcl-xL protein was examined. In the immunoblotting, the same experiments were repeated 10 times by using different lots of myocardial cells, and Bcl-xL immunoreaction-positive bands were analyzed by densitometry and statistical analysis was performed.

[5] = intravenously administered small amount (prior application); cited from earlier work

For CC(C)=CCC[C@](C)(O[C@@H]1O[C@H](CO[C@@H]2O[C@H](CO)[C@@H](O)[C@H](O)[C@H]2O)[C@@H](O)[C@H](O)[C@H]1O)[C@H]1CC[C@]2(C)[C@@H]1[C@H](O)C[C@@H]1[C@@]3(C)CC[C@H](O[C@@H]4O[C@H](CO)[C@@H](O)[C@H](O)[C@H]4O[C@@H]4O[C@H](CO)[C@@H](O)[C@H](O)[C@H]4O)C(C)(C)[C@@H]3CC[C@]12C [ginsenoside Rb1], the “suppression of apoptosis-like nerve cell death and Bcl-xL protein expression in nerve cells” value (cultured nerve cells; 1 fg/ml and 100 fg/ml (tested 1, 100 and 10^5 fg/ml)) is listed as “significant effects”, the “formation of lipid peroxides” value (cultured nerve cells; 100 fg/ml) is listed as “slight suppressive action” and the “concentrations reducing neurotoxicity of glutamic acid” value (cultured nerve cells; Kim et al. 1998, Liu and Zhang 1995) is listed as 0.11 to 11 µg/mL. The “concentration that may protect against apoptosis-like death” value (cultured nerve cells; Tanaka et al. 1998) was 500 µM, the “concentrations reducing necrosis of nerve cells caused by ferrous sulfate” value (cultured nerve cells; added in advance to the culture medium) was 0.1 to 100 fg/mL and the nerve cell death (cultured nerve cells; high concentration of ginsenoside Rb1, inventors' cell culture experiments) was “did not suppress”. For the same compound, the “metabolic activity of control cultured nerve cells” value (cultured nerve cells; not treated with SNP) was “no effect”, the “concentrations enhancing expression of Bcl-xL in cultured neurons” value (cultured nerve cells; prior application) was 1˜100 fg/ml and the “extracellular concentrations protecting nerve cells injured by SNP” value (cultured nerve cells; sodium nitroprusside treatment (prior application)) was 1 to 100 fg/mL. The “band of MAP2 and band of CNPase (survival of nerve cells and oligodendrocytes)” value ([1]; 1 fg/ml to 100 fg/ml, 5 days, vs non-added and 10^4 fg/ml groups) was “obviously intense”, the “concentrations that made intense the MAP2 and CNPase bands” value ([1]; FIG. 22) was 1 to 100 fg/mL and the “ill / adverse effects on careful observation of animals” value [2] was “No adverse effect was detected”. The “protective effect on myocardial cells” value ([3]; 0.01 fg/ml, n=3) was “significant effects are not noted”, the “striated muscle-specific α-actinin by immunoblotting (myocardial cell survival)” value ([3]; 1 fg/ml to 10^4 fg/ml, glucose-free serum-free medium, 4-5 days) was “significantly detected” and the “concentrations promoting survival of myocardial cells” value ([3]; FIG. 26) was 1-10^4 fg/ml. The “brain temperature, cerebral blood flow or blood pressure” value [4] was “no effects”, the “expression of Bcl-xL protein in myocardial cells” value (Bcl-xL; 1 fg/ml to 10^4 fg/ml, 18 hours, n=10) was “significantly enhanced” and the “expression of Bcl-xL mRNA in myocardial cells” value (Bcl-xL; 1 fg/ml-100 fg/ml, 18 hours) was “obviously increased”. For the same compound, the “concentrations increasing Bcl-xL mRNA in myocardial cells” value (Bcl-xL; FIG. 25) was 1 to 100 fg/mL and the “transfer into the brain and nervous systems” value [5] was “transferred quickly”.

Reference: patent US7235267B1, “Brain cell or nerve cell-protecting agents comprising medicinal ginseng” (priority 1999, dated 2007)
